# What was measured:
# [1] = molecular target: Beta-lactamase CTX-M (Escherichia coli) (UniProt Q9EXV5); experiment: Activity of Escherichia coli CTX-M-15 assessed as drug hydrolysis by spectrophotometry relative to cephaloridine; parameters: scale not given: the % may be the effect or the level left
# [2] = molecular target: Beta-lactamase CTX-M (Escherichia coli) (UniProt Q9EXV5); experiment: Ratio of Kcat to Km of Escherichia coli CTX-M-15 assessed as drug hydrolysis by spectrophotometry relative to cephaloridine; parameters: scale not given: the % may be the effect or the level left
# [3] = molecular target: T1, Beta-lactamase (Klebsiella oxytoca) (UniProt Q8RT60); experiment: Activity of Klebsiella oxytoca beta-lactamase K1 assessed as drug hydrolysis by spectrophotometry relative to cephaloridine; parameters: scale not given: the % may be the effect or the level left
# T1 sequence (whole entry): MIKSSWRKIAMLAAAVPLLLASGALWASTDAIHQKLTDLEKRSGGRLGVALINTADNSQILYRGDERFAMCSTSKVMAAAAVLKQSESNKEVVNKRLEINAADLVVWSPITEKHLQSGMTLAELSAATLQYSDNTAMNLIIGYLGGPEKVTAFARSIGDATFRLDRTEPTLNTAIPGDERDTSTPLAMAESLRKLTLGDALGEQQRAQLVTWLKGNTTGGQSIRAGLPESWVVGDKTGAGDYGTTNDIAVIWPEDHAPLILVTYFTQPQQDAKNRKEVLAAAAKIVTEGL
# [4] = molecular target: T1, Beta-lactamase (Klebsiella oxytoca); experiment: Ratio of Kcat to Km of Klebsiella oxytoca beta-lactamase K1 assessed as drug hydrolysis by spectrophotometry relative to cephaloridine; parameters: scale not given: the % may be the effect or the level left
# [5] = test system: Klebsiella pneumoniae; experiment: Activity of Klebsiella pneumoniae TEM26 assessed as drug hydrolysis by spectrophotometry
# [6] = test system: Klebsiella pneumoniae; experiment: Activity of Klebsiella pneumoniae TEM26 assessed as drug hydrolysis by spectrophotometry relative to cephaloridine; parameters: scale not given: the % may be the effect or the level left
# [7] = test system: Klebsiella pneumoniae; experiment: Ratio of Kcat to Km of Klebsiella pneumoniae TEM26 assessed as drug hydrolysis by spectrophotometry
# [8] = test system: Klebsiella pneumoniae; experiment: Ratio of Kcat to Km of Klebsiella pneumoniae TEM26 assessed as drug hydrolysis by spectrophotometry relative to cephaloridine; parameters: scale not given: the % may be the effect or the level left
# [9] = molecular target: Beta-lactamase TEM (Escherichia coli) (UniProt P62593); experiment: Ratio of Kcat to Km of Escherichia coli TEM1 assessed as drug hydrolysis by spectrophotometry relative to cephaloridine; parameters: scale not given: the % may be the effect or the level left
# Sequence of Beta-lactamase TEM (Escherichia coli) (P62593 whole entry): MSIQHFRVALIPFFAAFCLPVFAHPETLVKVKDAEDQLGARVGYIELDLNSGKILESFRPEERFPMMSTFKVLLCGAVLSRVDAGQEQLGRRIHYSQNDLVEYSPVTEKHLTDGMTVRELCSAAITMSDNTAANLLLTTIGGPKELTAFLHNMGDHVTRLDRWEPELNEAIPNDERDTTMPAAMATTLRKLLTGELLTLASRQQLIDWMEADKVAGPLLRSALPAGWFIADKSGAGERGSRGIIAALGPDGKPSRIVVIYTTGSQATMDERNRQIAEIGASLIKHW
# [10] = molecular target: T2, Beta-lactamase SHV-1 (Klebsiella pneumoniae) (UniProt P0AD64); experiment: Activity of Klebsiella pneumoniae SHV1 assessed as drug hydrolysis by spectrophotometry relative to cephaloridine; parameters: scale not given: the % may be the effect or the level left
# T2 sequence (whole entry): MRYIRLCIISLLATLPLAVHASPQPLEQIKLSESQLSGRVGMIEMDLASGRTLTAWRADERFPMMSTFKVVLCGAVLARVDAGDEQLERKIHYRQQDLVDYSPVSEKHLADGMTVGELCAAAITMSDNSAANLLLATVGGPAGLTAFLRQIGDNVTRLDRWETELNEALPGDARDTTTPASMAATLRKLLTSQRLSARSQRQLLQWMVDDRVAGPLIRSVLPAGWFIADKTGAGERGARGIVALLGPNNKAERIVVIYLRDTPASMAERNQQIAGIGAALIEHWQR
# [11] = molecular target: T2, Beta-lactamase SHV-1 (Klebsiella pneumoniae); experiment: Ratio of Kcat to Km of Klebsiella pneumoniae SHV1 assessed as drug hydrolysis by spectrophotometry relative to cephaloridine; parameters: scale not given: the % may be the effect or the level left
# [12] = molecular target: T3, Carbapenem-hydrolyzing beta-lactamase SME-3 (Serratia marcescens) (UniProt Q6PRG8); experiment: Activity of Serratia marcescens SME3 assessed as drug hydrolysis by spectrophotometry relative to cephaloridine; parameters: scale not given: the % may be the effect or the level left
# T3 sequence (whole entry): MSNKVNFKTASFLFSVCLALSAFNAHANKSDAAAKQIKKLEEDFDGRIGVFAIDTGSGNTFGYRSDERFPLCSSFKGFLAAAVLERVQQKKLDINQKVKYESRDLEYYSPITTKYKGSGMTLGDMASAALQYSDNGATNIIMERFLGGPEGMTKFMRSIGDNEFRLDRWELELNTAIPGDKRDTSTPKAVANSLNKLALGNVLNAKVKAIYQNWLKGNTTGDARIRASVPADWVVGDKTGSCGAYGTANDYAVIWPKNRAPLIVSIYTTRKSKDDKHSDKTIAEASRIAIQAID
# [13] = molecular target: T3, Carbapenem-hydrolyzing beta-lactamase SME-3 (Serratia marcescens); experiment: Ratio of Kcat to Km of Serratia marcescens SME3 assessed as drug hydrolysis by spectrophotometry relative to cephaloridine; parameters: scale not given: the % may be the effect or the level left
# [14] = molecular target: Beta-lactamase VIM-2 (Pseudomonas aeruginosa) (UniProt Q9K2N0); experiment: Activity of Pseudomonas aeruginosa VIM2 assessed as drug hydrolysis by spectrophotometry relative to cephaloridine; parameters: scale not given: the % may be the effect or the level left
# [15] = molecular target: Metallo beta-lactamase (Pseudomonas aeruginosa) (UniProt Q6TUJ4); experiment: Ratio of Kcat to Km of Pseudomonas aeruginosa IMP1 assessed as drug hydrolysis by spectrophotometry relative to cephaloridine; parameters: scale not given: the % may be the effect or the level left
# Sequence of Metallo beta-lactamase (Pseudomonas aeruginosa) (Q6TUJ4 as listed by the source): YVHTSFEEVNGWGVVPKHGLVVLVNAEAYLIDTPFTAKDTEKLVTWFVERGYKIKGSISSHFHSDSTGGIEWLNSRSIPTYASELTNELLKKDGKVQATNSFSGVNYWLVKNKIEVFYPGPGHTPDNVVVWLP
# [16] = molecular target: Beta-lactamase VIM-2 (Pseudomonas aeruginosa) (UniProt Q9K2N0); experiment: Ratio of Kcat to Km of Pseudomonas aeruginosa VIM2 assessed as drug hydrolysis by spectrophotometry relative to cephaloridine; parameters: scale not given: the % may be the effect or the level left
# [17] = molecular target: Beta-lactamase (Morganella morganii) (UniProt P94958); experiment: Activity of Morganella morganii AmpC assessed as drug hydrolysis by spectrophotometry relative to cephaloridine; parameters: scale not given: the % may be the effect or the level left
# [18] = molecular target: Beta-lactamase TEM (Escherichia coli) (UniProt P62593); experiment: Activity of Escherichia coli TEM1 assessed as drug hydrolysis by spectrophotometry relative to cephaloridine; parameters: scale not given: the % may be the effect or the level left
# [19] = molecular target: Beta-lactamase (Staphylococcus aureus) (UniProt P00807); experiment: Ratio of Kcat to Km of Staphylococcus aureus betalactamase PC1 assessed as drug hydrolysis by spectrophotometry relative to cephaloridine; parameters: scale not given: the % may be the effect or the level left
# Sequence of Beta-lactamase (Staphylococcus aureus) (P00807 whole entry): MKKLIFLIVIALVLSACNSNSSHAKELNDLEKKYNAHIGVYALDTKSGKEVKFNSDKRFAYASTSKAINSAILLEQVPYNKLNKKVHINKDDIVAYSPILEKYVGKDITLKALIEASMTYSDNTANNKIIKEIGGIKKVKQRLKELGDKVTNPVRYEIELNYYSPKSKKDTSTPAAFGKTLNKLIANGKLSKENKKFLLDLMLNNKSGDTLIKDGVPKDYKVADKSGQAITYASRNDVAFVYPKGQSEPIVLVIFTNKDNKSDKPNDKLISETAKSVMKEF
# [20] = molecular target: Beta-lactamase (Staphylococcus aureus) (UniProt P00807); experiment: Activity of Staphylococcus aureus betalactamase PC1 assessed as drug hydrolysis by spectrophotometry relative to cephaloridine; parameters: scale not given: the % may be the effect or the level left
# [21] = molecular target: Beta-lactamase (Morganella morganii) (UniProt P94958); experiment: Ratio of Kcat to Km of Morganella morganii AmpC assessed as drug hydrolysis by spectrophotometry relative to cephaloridine; parameters: scale not given: the % may be the effect or the level left
# [22] = molecular target: T4, Beta-lactamase (Providencia stuartii) (UniProt O69773); experiment: Activity of Providencia stuartii AmpC assessed as drug hydrolysis by spectrophotometry relative to cephaloridine; parameters: scale not given: the % may be the effect or the level left
# T4 sequence (whole entry): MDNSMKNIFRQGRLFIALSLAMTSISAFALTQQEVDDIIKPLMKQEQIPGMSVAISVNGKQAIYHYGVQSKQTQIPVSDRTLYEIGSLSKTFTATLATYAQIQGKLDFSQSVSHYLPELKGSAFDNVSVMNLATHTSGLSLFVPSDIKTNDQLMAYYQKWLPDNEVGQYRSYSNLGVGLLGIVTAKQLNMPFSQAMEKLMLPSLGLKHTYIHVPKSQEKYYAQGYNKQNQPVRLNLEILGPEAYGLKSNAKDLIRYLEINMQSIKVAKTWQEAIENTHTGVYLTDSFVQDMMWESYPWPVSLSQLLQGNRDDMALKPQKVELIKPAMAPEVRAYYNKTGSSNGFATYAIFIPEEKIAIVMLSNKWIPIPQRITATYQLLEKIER
# [23] = molecular target: T4, Beta-lactamase (Providencia stuartii); experiment: Ratio of Kcat to Km of Providencia stuartii AmpC assessed as drug hydrolysis by spectrophotometry relative to cephaloridine; parameters: scale not given: the % may be the effect or the level left
# [24] = molecular target: Beta-lactamase (Pseudomonas aeruginosa (strain ATCC 15692 / PAO1 / 1C / PRS 101 / LMG12228)) (UniProt P24735); experiment: Activity of Pseudomonas aeruginosa 4352 AmpC assessed as drug hydrolysis by spectrophotometry relative to cephaloridine; parameters: scale not given: the % may be the effect or the level left
# Sequence of Beta-lactamase (Pseudomonas aeruginosa (strain ATCC 15692 / PAO1 / 1C / PRS 101 / LMG12228)) (P24735 27-397 limits assumed): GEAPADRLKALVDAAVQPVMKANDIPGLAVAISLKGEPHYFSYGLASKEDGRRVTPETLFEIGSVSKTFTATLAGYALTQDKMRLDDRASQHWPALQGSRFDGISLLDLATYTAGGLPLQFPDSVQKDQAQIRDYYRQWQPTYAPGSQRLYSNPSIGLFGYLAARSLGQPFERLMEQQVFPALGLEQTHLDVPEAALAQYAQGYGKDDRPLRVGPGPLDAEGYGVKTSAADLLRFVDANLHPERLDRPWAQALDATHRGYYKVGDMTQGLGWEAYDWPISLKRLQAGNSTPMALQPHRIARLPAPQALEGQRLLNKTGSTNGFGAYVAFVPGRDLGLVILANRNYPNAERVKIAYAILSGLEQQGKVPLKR
# [25] = molecular target: Beta-lactamase (Pseudomonas aeruginosa (strain ATCC 15692 / PAO1 / 1C / PRS 101 / LMG12228)) (UniProt P24735); experiment: Ratio of Kcat to Km of Pseudomonas aeruginosa 4352 AmpC assessed as drug hydrolysis by spectrophotometry relative to cephaloridine; parameters: scale not given: the % may be the effect or the level left
# [26] = molecular target: Beta-lactamase (Pseudomonas aeruginosa (strain ATCC 15692 / PAO1 / 1C / PRS 101 / LMG12228)) (UniProt P24735); experiment: Activity of Pseudomonas aeruginosa 18SH AmpC assessed as drug hydrolysis by spectrophotometry relative to cephaloridine; parameters: scale not given: the % may be the effect or the level left
# [27] = molecular target: Beta-lactamase (Pseudomonas aeruginosa (strain ATCC 15692 / PAO1 / 1C / PRS 101 / LMG12228)) (UniProt P24735); experiment: Ratio of Kcat to Km of Pseudomonas aeruginosa 18SH AmpC assessed as drug hydrolysis by spectrophotometry relative to cephaloridine; parameters: scale not given: the % may be the effect or the level left
# [28] = molecular target: Beta-lactamase (Pseudomonas aeruginosa (strain ATCC 15692 / PAO1 / 1C / PRS 101 / LMG12228)) (UniProt P24735); experiment: Activity of Pseudomonas aeruginosa MK-1184 AmpC assessed as drug hydrolysis by spectrophotometry relative to cephaloridine; parameters: scale not given: the % may be the effect or the level left
# [29] = molecular target: Beta-lactamase (Pseudomonas aeruginosa (strain ATCC 15692 / PAO1 / 1C / PRS 101 / LMG12228)) (UniProt P24735); experiment: Ratio of Kcat to Km of Pseudomonas aeruginosa MK-1184 AmpC assessed as drug hydrolysis by spectrophotometry relative to cephaloridine; parameters: scale not given: the % may be the effect or the level left
# [30] = molecular target: Beta-lactamase (Serratia marcescens) (UniProt P18539); experiment: Activity of Serratia marcescens AmpC assessed as drug hydrolysis by spectrophotometry relative to cephaloridine; parameters: scale not given: the % may be the effect or the level left
# Sequence of Beta-lactamase (Serratia marcescens) (P18539 whole entry): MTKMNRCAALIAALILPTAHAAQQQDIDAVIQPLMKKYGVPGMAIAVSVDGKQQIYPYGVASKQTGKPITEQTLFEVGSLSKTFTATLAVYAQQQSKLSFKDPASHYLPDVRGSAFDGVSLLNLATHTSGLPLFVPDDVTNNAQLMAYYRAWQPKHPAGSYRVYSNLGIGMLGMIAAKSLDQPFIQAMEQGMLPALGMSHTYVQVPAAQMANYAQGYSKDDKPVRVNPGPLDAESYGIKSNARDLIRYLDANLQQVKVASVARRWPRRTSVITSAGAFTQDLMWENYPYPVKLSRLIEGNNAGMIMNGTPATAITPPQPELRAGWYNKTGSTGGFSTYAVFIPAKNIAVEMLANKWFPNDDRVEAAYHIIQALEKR
# [31] = molecular target: Beta-lactamase (Serratia marcescens) (UniProt P18539); experiment: Ratio of Kcat to Km of Serratia marcescens AmpC assessed as drug hydrolysis by spectrophotometry relative to cephaloridine; parameters: scale not given: the % may be the effect or the level left
# [32] = molecular target: Beta-lactamase (Pseudomonas aeruginosa (strain ATCC 15692 / PAO1 / 1C / PRS 101 / LMG12228)) (UniProt P24735); experiment: Activity of Pseudomonas aeruginosa AmpC assessed as drug hydrolysis by spectrophotometry relative to cephaloridine; parameters: scale not given: the % may be the effect or the level left
# [33] = molecular target: Beta-lactamase (Pseudomonas aeruginosa (strain ATCC 15692 / PAO1 / 1C / PRS 101 / LMG12228)) (UniProt P24735); experiment: Ratio of Kcat to Km of Pseudomonas aeruginosa AmpC assessed as drug hydrolysis by spectrophotometry relative to cephaloridine; parameters: scale not given: the % may be the effect or the level left
compound,measurement,setting,value
CO/N=C(\C(=O)N[C@@H]1C(=O)N2C(C(=O)O)=C(COC(C)=O)CS[C@H]12)c1csc(N)n1,Activity,[1],95%
same,Activity,[2],140%
same,Activity,[3],13%
same,Activity,[4],2.3%
same,Km,[5],15 µM
same,kcat,[5],2.9 s⁻¹
same,Activity,[6],7.8%
same,kcat/Km,[7],190000 M⁻¹ s⁻¹
same,Activity,[8],34%
CC1(C)S[C@@H]2[C@H](NC(=O)Cc3ccccc3)C(=O)N2[C@H]1C(=O)O,Activity,[9],5600%
same,Activity,[10],260%
same,Activity,[11],2600%
same,Activity,[1],25%
same,Activity,[2],110%
same,Activity,[3],160%
same,Activity,[4],400%
same,Km,[5],5 µM
same,kcat,[5],76 s⁻¹
same,Activity,[6],210%
same,kcat/Km,[7],1.5e+07 M⁻¹ s⁻¹
same,Activity,[8],2700%
same,Activity,[12],0.73%
same,Activity,[13],130%
same,Activity,[14],61%
same,Activity,[15],750%
same,Activity,[16],570%
same,Activity,[17],26%
same,Activity,[18],122%
same,Activity,[19],1.5e+06%
same,Activity,[20],46000%
same,Activity,[21],860%
same,Activity,[22],0.62%
same,Activity,[23],43%
same,Activity,[24],37%
same,Activity,[25],1100%
same,Activity,[26],35%
same,Activity,[27],61%
same,Activity,[28],91%
same,Activity,[29],670%
same,Activity,[30],0.95%
same,Activity,[31],290%
same,Activity,[32],540%
same,Activity,[33],14000%
CC(C)(O/N=C(\C(=O)N[C@@H]1C(=O)N2C(C(=O)[O-])=C(C[n+]3ccccc3)CS[C@H]12)c1csc(N)n1)C(=O)O,Activity,[9],0.00067%
same,Activity,[10],0.0026%
same,Activity,[11],0.00084%
same,Activity,[1],2.3%
same,Activity,[2],0.37%
same,Activity,[3],0.0026%
same,Activity,[4],0.0018%
same,Km,[5],130 µM
same,kcat,[5],95 s⁻¹
same,Activity,[6],260%
same,kcat/Km,[7],730000 M⁻¹ s⁻¹
same,Activity,[8],130%
same,Activity,[12],0.013%
same,Activity,[13],0.031%
same,Activity,[14],0.19%
same,Activity,[15],120%
same,Activity,[16],1.7%
same,Activity,[17],< 0.14%
same,Activity,[18],0.00023%
same,Activity,[19],0.92%
same,Activity,[20],0.25%
same,Activity,[21],< 2.5%
same,Activity,[22],0.036%
same,Activity,[23],1.3%
same,Activity,[24],< 0.01%
same,Activity,[25],0.42%
same,Activity,[26],< 0.1%
same,Activity,[27],0.83%
same,Activity,[28],3.1%
same,Activity,[29],5.3%
same,Activity,[30],< 0.0025%
same,Activity,[31],< 0.0028%
same,Activity,[32],< 0.059%

# From ChEMBL document CHEMBL1143427, “Interactions of ceftobiprole with beta-lactamases from molecular classes A to D” (Antimicrob Agents Chemother, 2007)
